# According to ChEMBL document CHEMBL1201862, “PubChem BioAssay data set” (2004):
# Calls of active or inactive are those of the source.
# Columns and labels:
# Mucolipin-3 = Mucolipin-3 (Homo sapiens, UniProt Q8TDD5); assay: Dose response cell-based high-throughput screening assay for agonists of the transient receptor potential channel ML3 (TRPML3). [Related pubchem assays: 1526, 1424, 1448 ]; assay type: functional
# Ion channel NompC = Ion channel NompC (Danio rerio, UniProt Q7T1G6); assay: Fluorescence counterscreen assay for TRPML3 agonists: dose response cell-based high-throughput screening assay to identify agonists of the transient receptor potential channel N1 (TRPN1). [Related pubchem assays: 1526, 1424, 1448 ]; assay type: functional
# Vero = assay: Vero cell viability after compound exposure – synthesized analogs, set II, cytotoxicity control for West Nile virus antiviral project, SAR follow-up (AID 2402); assay type: functional; conditions: Chlorocebus sabaeus
# [1] = target: T1, Neuropeptides B/W receptor type 1 (Homo sapiens, UniProt P48145); assay: Fluorescence-based dose response cell-based high throughput screening assay to identify antagonists of the G-protein coupled receptor 7 (GPR7). [Related pubchem assays: 1952 (Screening assay (GPR7 antagonists).), 1880 (Summary AID.)]; assay type: functional
# T1 sequence (P48145 whole entry): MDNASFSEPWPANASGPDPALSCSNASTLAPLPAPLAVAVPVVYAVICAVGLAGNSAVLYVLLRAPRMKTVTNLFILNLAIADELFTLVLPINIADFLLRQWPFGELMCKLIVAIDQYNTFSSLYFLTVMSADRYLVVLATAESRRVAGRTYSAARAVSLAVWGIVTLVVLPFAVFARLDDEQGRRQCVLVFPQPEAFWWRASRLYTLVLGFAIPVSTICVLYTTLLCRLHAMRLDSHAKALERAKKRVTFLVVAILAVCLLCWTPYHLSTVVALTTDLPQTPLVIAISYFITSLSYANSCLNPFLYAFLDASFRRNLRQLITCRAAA
# [2] = target: Melanin-concentrating hormone receptor 1 (Homo sapiens, UniProt Q99705); assay: Fluorescence-based counterscreen for antagonists of the G-protein coupled receptor 7 (GPR7): cell-based high throughput dose response assay to identify antagonists of the melanin-concentrating hormone receptor 1 (MCHR1).; assay type: functional
# Estrogen receptor = Estrogen receptor (Homo sapiens, UniProt P03372); assay: ERα coactivator recruitment enhancers – biochemical, TR-FRET, ERα LBD, dose response (AID 737)
# [3] = target: 5-hydroxytryptamine receptor 1A (Homo sapiens, UniProt P08908); assay type: functional
# Bcl-2-related protein A1 [4] = target: T2, Bcl-2-related protein A1 (Mus musculus, UniProt Q07440); assay: small-molecule antagonists of Bfl-1/BH3 interaction – biochemical, TR-FRET, mouse Bfl-1, confirmation (AID 621);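 further: TR-FRET binding of GST-Bfl-1 to FITC-labelled Bid peptide via terbium antibody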
# T2 sequence (Q07440 whole entry): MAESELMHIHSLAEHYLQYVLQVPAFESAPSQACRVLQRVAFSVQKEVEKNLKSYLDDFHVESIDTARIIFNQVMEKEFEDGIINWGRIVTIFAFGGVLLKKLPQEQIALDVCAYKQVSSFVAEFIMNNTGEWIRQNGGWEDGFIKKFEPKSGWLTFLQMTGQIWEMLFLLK
# Bcl-2-related protein A1 [5] = target: T2, Bcl-2-related protein A1; assay: Bfl-1 binding inhibitors, SAR follow-up, biochemical, fluorescence polarization (AID 1070)
# [6] = M. tuberculosis growth inhibition, HTS (AID 449762); assay type: functional
# Chain of Melanin-concentrating hormone receptor 1 (Q99705 whole entry, the tested form may be a part): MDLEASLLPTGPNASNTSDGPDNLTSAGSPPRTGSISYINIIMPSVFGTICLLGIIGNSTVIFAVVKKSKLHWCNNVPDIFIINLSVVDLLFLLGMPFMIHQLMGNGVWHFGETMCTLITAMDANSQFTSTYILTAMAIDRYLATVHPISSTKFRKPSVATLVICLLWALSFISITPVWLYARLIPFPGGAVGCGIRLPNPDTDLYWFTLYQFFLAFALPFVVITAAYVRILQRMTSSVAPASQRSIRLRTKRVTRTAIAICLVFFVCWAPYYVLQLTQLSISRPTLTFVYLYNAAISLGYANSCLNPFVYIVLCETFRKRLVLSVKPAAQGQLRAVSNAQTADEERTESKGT
# Chain of 5-hydroxytryptamine receptor 1A (P08908 whole entry): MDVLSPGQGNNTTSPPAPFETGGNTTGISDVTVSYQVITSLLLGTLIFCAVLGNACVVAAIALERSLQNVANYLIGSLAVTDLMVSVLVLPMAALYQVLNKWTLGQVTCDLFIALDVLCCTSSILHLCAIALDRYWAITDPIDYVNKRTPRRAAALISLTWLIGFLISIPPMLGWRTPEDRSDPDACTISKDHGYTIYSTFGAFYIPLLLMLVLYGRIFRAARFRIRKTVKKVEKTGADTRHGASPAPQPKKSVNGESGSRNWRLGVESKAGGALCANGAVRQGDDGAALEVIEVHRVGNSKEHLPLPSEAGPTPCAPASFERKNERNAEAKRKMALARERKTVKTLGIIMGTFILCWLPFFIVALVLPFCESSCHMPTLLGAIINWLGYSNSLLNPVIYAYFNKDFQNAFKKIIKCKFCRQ
# Chain of Estrogen receptor (P03372 whole entry, the tested form may be a part): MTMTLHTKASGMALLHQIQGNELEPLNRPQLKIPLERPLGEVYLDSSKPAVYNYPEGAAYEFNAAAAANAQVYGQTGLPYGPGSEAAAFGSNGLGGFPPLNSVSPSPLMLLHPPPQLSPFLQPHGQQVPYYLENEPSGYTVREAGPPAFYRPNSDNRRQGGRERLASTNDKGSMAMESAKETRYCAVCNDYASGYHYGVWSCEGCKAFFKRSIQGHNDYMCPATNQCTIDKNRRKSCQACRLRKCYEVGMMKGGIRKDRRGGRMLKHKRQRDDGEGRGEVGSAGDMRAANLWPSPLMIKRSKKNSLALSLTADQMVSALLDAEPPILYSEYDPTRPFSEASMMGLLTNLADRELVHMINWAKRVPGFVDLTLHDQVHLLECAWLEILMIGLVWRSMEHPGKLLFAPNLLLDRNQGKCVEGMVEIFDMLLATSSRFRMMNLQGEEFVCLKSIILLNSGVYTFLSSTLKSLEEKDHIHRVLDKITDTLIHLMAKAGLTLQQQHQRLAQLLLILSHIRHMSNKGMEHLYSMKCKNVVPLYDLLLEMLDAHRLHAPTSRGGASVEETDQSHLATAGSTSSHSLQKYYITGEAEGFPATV
# Chain of Ion channel NompC (Q7T1G6 whole entry): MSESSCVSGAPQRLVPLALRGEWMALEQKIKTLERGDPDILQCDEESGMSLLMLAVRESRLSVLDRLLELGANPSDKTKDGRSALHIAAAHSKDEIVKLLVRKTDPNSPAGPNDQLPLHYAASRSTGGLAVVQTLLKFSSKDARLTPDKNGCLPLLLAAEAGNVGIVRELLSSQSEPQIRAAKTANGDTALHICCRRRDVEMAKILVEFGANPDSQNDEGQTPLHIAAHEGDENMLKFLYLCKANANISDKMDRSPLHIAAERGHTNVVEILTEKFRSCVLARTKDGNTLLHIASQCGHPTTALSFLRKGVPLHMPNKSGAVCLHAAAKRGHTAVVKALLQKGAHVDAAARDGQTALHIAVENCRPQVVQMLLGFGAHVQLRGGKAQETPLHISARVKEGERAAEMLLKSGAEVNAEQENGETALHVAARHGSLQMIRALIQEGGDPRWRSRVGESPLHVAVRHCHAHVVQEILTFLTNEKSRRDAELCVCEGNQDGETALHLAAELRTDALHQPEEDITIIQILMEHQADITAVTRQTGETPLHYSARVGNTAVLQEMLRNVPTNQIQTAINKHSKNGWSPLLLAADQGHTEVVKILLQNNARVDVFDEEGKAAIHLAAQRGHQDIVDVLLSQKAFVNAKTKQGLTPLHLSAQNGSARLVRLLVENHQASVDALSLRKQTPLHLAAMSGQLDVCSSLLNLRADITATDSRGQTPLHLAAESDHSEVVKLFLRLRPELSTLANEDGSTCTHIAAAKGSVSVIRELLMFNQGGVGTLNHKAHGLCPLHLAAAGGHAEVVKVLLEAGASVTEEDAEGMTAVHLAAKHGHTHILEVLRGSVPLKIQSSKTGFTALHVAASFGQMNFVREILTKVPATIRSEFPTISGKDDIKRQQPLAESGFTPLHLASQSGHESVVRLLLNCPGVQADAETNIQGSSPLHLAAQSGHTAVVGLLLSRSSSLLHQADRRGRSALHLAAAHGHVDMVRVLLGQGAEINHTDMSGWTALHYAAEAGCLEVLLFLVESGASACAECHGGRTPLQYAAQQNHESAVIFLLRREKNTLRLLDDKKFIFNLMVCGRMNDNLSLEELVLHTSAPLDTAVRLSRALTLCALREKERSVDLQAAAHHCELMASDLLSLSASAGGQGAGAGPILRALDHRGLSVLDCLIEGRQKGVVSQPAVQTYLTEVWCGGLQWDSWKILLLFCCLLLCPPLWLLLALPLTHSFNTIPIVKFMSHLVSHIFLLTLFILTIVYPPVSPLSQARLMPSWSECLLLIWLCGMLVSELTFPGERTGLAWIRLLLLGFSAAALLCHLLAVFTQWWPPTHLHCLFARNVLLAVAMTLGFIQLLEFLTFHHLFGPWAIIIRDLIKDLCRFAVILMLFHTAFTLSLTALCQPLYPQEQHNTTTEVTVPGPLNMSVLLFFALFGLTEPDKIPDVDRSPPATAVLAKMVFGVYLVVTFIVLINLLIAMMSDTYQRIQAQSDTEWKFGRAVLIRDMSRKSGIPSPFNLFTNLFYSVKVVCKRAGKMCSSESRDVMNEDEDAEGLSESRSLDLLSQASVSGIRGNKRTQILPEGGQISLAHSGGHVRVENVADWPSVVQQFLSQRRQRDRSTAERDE
# Chain of Mucolipin-3 (Q8TDD5 whole entry): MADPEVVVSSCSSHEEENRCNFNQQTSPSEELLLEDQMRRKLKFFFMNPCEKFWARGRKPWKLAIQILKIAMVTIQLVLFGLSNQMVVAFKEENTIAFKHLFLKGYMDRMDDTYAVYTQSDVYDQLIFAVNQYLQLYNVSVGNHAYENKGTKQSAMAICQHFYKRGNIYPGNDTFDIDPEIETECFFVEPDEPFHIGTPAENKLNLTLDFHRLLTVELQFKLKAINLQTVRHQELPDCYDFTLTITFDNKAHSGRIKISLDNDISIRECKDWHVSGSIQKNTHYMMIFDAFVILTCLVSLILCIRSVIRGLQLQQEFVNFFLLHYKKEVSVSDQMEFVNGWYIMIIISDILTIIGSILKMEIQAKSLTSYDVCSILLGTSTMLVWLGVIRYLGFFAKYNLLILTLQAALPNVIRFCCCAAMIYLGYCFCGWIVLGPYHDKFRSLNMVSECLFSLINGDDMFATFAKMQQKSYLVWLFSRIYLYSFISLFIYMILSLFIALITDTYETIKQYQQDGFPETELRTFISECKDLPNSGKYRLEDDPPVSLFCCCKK
compound,measurement,setting,value
Cc1ccc(S(=O)(=O)N(C)c2cc(S(=O)(=O)N3CCC(C)CC3)c(C)cc2C)cc1,EC50,Mucolipin-3,2.06 µM (active)
same,EC50,Ion channel NompC,> 29.9 µM (not active)
CC1CC(C)CN(C(=O)CSc2nc3ccccc3c(=O)n2-c2ccc(F)cc2)C1 (stereo not given),CC50,Vero,> 100 µM (active)
CCC(C)(C(=O)NC1CCCC1)N(Cc1ccco1)C(=O)c1ccc2c(c1)OCO2 (stereo not given),IC50,[1],> 43.8 µM (not active)
same,IC50,[2],> 43.8 µM (not active)
COCCCn1c2nc3ccccc3nc2c2c(=O)n(-c3ccccc3OC)c(C)nc21,EC50,Estrogen receptor,12.7 µM (not active)
COC(=O)CC(=O)Cc1nc(N)nc(Nc2ccc(C)c(C)c2)n1,EC50,[3],> 50 µM (not active)
Cc1ccc(-n2nnc(-c3cc4ccccc4nc3Cl)n2)cc1,IC50,Bcl-2-related protein A1 [4],> 100 µM (not active)
same,IC50,Bcl-2-related protein A1 [5],> 100 µM (not active)
CCOC(=O)c1ccc(NC(=O)CSc2ccc(-c3cccnc3)nn2)cc1,IC50,[6],> 100 µM (active)
